According to patent US20250270394A1, “CYCLODEXTRIN INCORPORATED SILICONE MATERIALS AND THEIR USE AS CARRIERS FOR ACTIVES” (WACKER CHEMIE AG, priority 2022, published 2025):
Where two headings read alike, the source gives them in different places.

Columns and labels:
[1] = Solubility of silylated cyclodextrins in silicone fluid BELSIL DM 5
Method: Such a homogneous mixture can also be formed by using a magnetic stirrer, overhead stirrer, Speedmixer™ or similar mixing techniques.
Above experiment was repeated with a native γ-CD CAVAMAX® W8, which was not modified with silylation.
Silylated β-cyclodextrin CH77 with low number of silyl groups (7.95 TMS and 3.23 VDMS groups on average) was evaluated to check the solubility in DM 5 at 10 wt. %.

[2] = Homogeneity of cured silicone elastomer incorporating the cyclodextrin; type: physicochemical; conditions: hydrosilylation-cured PDMS elastomer, procedure analogous to CH95-70
From the text: 0.802 g (0.304 mmol) CH70, dimethylvinylsilyl-β-cyclodextrin, and 52.0 g of a silicon hydride terminated polydimethylsiloxane fluid with a viscosity of approx. 1000 mPa·s, are placed in a suitable plastic cup with a lid along with a magnetic stir bar. The cup is blanketed with nitrogen gas and then closed to maintain an inert atmosphere while stirring. The materials are stirred until the cyclodextrin is fully dissolved. To this solution, 22.9 g of a vinyl terminated polydimethylsiloxane fluid with a viscosity of approx. 100,000 mPa·s, are added and the contents of the plastic cup are hand-mixed with a stirring rod. 0.0757 g of a platinum catalyst solution, divinyl tetramethyl disiloxane platinum complex diluted in vinyl terminated polysiloxane (1% w/w Pt content), are added to the mixture and hand-mixed, followed by further mixing in a FlackTek, Inc. Speedmixer™, model DAC 1100.2 VAC, at 1250 rpm for 1 minute under vacuum (95 mbar pressure, to degas the mixture).
The composition is then placed into a “plate and frame” mold lined with a suitable release liner. The composition and mold are put into an oven preheated at 80° C. for 1 h to cure into a rubber slab produced are approximately 6 in X 6 in X 0.072 in. The cured elastomer specimen is clear and colorless. […]

[3] = Release of geraniol from cured elastomer, weight loss in oven at 60° C.; type: physicochemical
Method: A cured elastomer/CD/geraniol sample (VP141-2-1) containing 10:1 mole ratio of geraniol to CD was prepared by using the following procedure: Trimethylsilyl-β-cyclodextrin CH62 (1.41 g, 0.59 mmol) and geraniol (0.90 g, 5.9 mmol) were added to a plastic cup and mixed using a Speedmixer™ for 2 min at 2000 rpm (mixing was repeated 2-3 times). The mixture appeared almost homogeneous. SiH terminated linear silicone of approximate formula MHD220MH and approximate viscosity 1000 mPa·s (13.95 g), SiH terminated and pendant SiH containing silicone of approximate formula MHD95.5DH9.6MH and having an approximate viscosity of 165 mPa·s (0.71 g), vinyl terminated linear silicone of approximate viscosity 1000 mPa·s (22.31 g) and platinum catalyst solution (0.078 g) were added to the cup and mixed using Speedmixer™ for 2 min at 2000 rpm (x 3-4 times). The resulted clear and colorless mixture was left in the tightly closed cup for 24-36 h to cure at room temperature to get a cured elastomer sample.
Then, vinyl terminated linear silicone of approximate viscosity 1000 mPa·s(23.09 g) and platinum catalyst solution (0.075 g) were added to the cup and mixed using Speedmixer™ for 2 min at 2000 rpm (mixing was repeated 2-3 times). The resultant clear, colorless mixture was left in the tightly closed cup for 24-36 h to cure at room temperature to get a cured elastomer sample. […]

[4] = Thermogravimetric analysis (TGA) of evaporation of active, pure versus silyl-CD complex; type: physicochemical
From the text: Complex formation provides advantage for practical use of these guest molecules, many of which are pharmaceutical or cosmetic actives. For example, complexation slows down the evaporation of actives making the actives last longer. This is confirmed by Thermogravimetric analysis (TGA). Thermogravimetric analysis results for pure geraniol and its 1:1 complex with trimethylsilyl-β-cyclodextrin CH62 are shown in FIG. 4.
The complex with TMS-β-CD CH62 contains approximately 6 wt. % Geraniol. […] Thus, complexation with silyl-CD slows down loss of geraniol.
In FIG. 5 TGA thermograms show similar observations for complexation between a silyl-CD MG 15 and alpha-pinene 1:1 compared with pure alpha-pinene.
Pure pinene completely evaporates by 140° C., but it takes up to approximately 200° C. for the pinene to completely evaporate from the complex.

| SMILES | temperature at which evaporation (weight loss) starts [4] | temperature at which evaporation is complete [4] | appearance of cured elastomer sample [2] | other results |
| --- | --- | --- | --- | --- |
| OC[C@H]1O[C@@H]2O[C@H]3[C@H](O)[C@@H](O)[C@@H](O[C@H]4[C@H](O)[C@@H](O)[C@@H](O[C@H]5[C@H](O)[C@@H](O)[C@@H](O[C@H]6[C@H](O)[C@@H](O)[C@@H](O[C@H]7[C@H](O)[C@@H](O)[C@@H](O[C@H]8[C@H](O)[C@@H](O)[C@@H](O[C@H]9[C@H](O)[C@@H](O)[C@@H](O[C@H]1[C@H](O)[C@H]2O)O[C@@H]9CO)O[C@@H]8CO)O[C@@H]7CO)O[C@@H]6CO)O[C@@H]5CO)O[C@@H]4CO)O[C@@H]3CO [CAVAMAX® W8, γ-cyclodextrin] | – | – | – | solubility in DM 5 (appearance of mixture) [1]: heterogeneous and opaque, with gross phase separation |
| OC[C@H]1O[C@@H]2O[C@H]3[C@H](O)[C@@H](O)[C@@H](O[C@H]4[C@H](O)[C@@H](O)[C@@H](O[C@H]5[C@H](O)[C@@H](O)[C@@H](O[C@H]6[C@H](O)[C@@H](O)[C@@H](O[C@H]7[C@H](O)[C@@H](O)[C@@H](O[C@H]8[C@H](O)[C@@H](O)[C@@H](O[C@H]1[C@H](O)[C@H]2O)O[C@@H]8CO)O[C@@H]7CO)O[C@@H]6CO)O[C@@H]5CO)O[C@@H]4CO)O[C@@H]3CO [CAVAMAX® W7, β-cyclodextrin] | – | – | heterogeneous, opaque, with large domain separations | – |
| COC[C@H]1O[C@@H]2O[C@H]3[C@H](OC)[C@@H](OC)[C@@H](O[C@H]4[C@H](OC)[C@@H](OC)[C@@H](O[C@H]5[C@H](OC)[C@@H](OC)[C@@H](O[C@H]6[C@H](OC)[C@@H](OC)[C@@H](O[C@H]7[C@H](OC)[C@@H](OC)[C@@H](O[C@H]8[C@H](OC)[C@@H](OC)[C@@H](O[C@H]1[C@H](OC)[C@H]2OC)O[C@@H]8COC)O[C@@H]7COC)O[C@@H]6COC)O[C@@H]5COC)O[C@@H]4COC)O[C@@H]3COC [permethylated β-cyclodextrin] | – | – | heterogeneous, opaque, with large domain separations | solubility in DM 5 (appearance of mixture) ([1]; 10 wt. % mixture in BELSIL DM 5 (polydimethylsiloxane, 5 mPa·s), vortex mixer): heterogeneous and opaque |

Continued, in another order:

| temperature at which evaporation (weight loss) starts [4] | temperature at which evaporation is complete [4] | SMILES | appearance of cured elastomer sample [2] | other results |
| --- | --- | --- | --- | --- |
| approximately 75 °C | approximately 225 °C | CC(C)=CCC/C(C)=C/CO [Geraniol, geraniol] | – | time to complete release of geraniol [3]: a few hours |
| < 30 °C | ≤ 140 °C | CC1=CCC2CC1C2(C)C (stereo not drawn) [pinene, alpha-pinene] | – | – |
